Measurements from patent US20240279237A1, “FUSED BICYCLIC HETEROARYL COMPOUNDS USEFUL AS NLRP3 INHIBITORS” (Hoffmann-La Roche Inc., priority 2021, published 2024).
Structures can show the parent of a compound that is named as a salt.

Molecular target: T1, NLRP3 (Homo sapiens, UniProt Q96P20)
T1 construct: Seed THP-1 cells (25,000 cells/well) containing 1.0 μg/ml LPS in 40 μl of RPMI medium; host or cells: THP-1 cells
Assay: THP-1 Cells Pyroptosis Assay
Format: cell-based
Settings: THP-1 cells with 1.0 μg/ml LPS; compound 3 hours; nigericin 5 μM 1 hr; resazurin readout
Method: The cells were routinely passaged and grown to confluency (˜10^6 cells/ml). On the day of the experiment, THP-1 cells were harvested and resuspended into RPMI medium (without FBS). The cells were then counted and viability (>90%) checked by Trypan blue (Sigma #T8154). […] To this diluted cell solution was added LPS (Sigma #L4524) to give a 1 μg/ml Final Assay Concentration (FAC). 40 μl of the final preparation was aliquoted into each well of a 96-well plate. The plate thus prepared was used for compound screening.
The following method step-by-step assay was followed for compound screening. • 1. […] Incubate for 3 hours at 37° C., 5% CO2 • 4. Add 5 μl nigericin (Sigma #N7143) (FAC 5 μM) to all wells • 5. Incubate for 1 hr at 37° C., 5% CO2 • 6. At the end of the incubation period, spin plates at 300×g for 3 mins and remove supernatant • 7. Then add 50 μl of resazurin (Sigma #R7017) (FAC 100 μM resazurin in RPMI medium without FBS) and incubate plates for a further 1-2 hours at 37° C. and 5% CO2 • 8.

T1 sequence (Q96P20 whole entry): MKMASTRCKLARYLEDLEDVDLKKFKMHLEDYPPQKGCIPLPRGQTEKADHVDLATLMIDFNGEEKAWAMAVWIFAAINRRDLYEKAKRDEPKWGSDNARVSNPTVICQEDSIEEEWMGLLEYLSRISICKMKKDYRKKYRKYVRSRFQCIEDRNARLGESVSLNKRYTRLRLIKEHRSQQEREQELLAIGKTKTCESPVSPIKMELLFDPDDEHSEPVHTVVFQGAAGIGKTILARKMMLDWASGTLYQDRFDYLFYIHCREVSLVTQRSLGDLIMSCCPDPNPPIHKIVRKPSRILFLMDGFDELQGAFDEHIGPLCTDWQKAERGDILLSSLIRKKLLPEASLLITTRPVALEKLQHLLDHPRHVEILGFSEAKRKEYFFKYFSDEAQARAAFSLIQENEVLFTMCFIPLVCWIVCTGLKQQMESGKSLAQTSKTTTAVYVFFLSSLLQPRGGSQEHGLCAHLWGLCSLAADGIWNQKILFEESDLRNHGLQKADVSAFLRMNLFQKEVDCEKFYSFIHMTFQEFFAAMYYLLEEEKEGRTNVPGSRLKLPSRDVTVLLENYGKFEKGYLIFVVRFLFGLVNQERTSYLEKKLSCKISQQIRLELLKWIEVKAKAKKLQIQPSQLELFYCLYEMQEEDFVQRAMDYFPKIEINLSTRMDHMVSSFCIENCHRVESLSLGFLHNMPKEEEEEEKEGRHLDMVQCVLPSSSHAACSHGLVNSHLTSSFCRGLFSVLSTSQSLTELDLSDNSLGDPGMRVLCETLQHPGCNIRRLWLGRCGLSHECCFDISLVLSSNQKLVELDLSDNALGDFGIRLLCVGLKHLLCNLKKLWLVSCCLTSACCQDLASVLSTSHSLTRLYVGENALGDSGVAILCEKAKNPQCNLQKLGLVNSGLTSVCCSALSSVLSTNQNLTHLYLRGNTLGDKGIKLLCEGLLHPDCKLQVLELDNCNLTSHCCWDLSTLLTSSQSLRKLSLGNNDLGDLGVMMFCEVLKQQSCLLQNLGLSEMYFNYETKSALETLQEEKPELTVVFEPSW

Compound | IC50
Cc1cc(Cl)cc(O)c1-c1ccc2oc(CC3CN(C(C)C)CCO3)nc2n1 (stereo not shown) [Example 88, 5-Chloro-2-[2-[(4-isopropylmorpholin-2-yl)methyl]oxazolo[4,5-b]pyridin-5-yl]-3-methyl-phenol;formic acid] | 6 nM
CCN1CCC[C@@H](Nc2nc3nc(-c4c(C)cc(F)cc4O)ccc3o2)C1 [Example 45, 2-[2-[[(3R)-1-Ethyl-3-piperidyl]amino]oxazolo[4,5-b]pyridin-5-yl]-5-fluoro-3-methyl-phenol] | 0.9 nM
Cc1cc(C#N)cc(O)c1-c1ccc2oc(N3CCC4CCN(C)CC43)nc2n1 (single isomer, unassigned) [Example 27A, 4-[2-[(3aS,7aR or 3aR,7aS)-6-methyl-3,3a,4,5,7,7a-hexahydro-2H-pyrrolo[2,3-c]pyridin-1-yl]oxazolo[4,5-b]pyridin-5-yl]-3-hydroxy-5-methyl-benzonitrile] | 578 nM
Cc1cc(C(F)(F)F)cc(O)c1-c1cc(C)c2oc(N[C@@H]3CCCN(C)C3)nc2n1 [Example 33, 3-Methyl-2-[7-methyl-2-[[(3R)-1-methyl-3-piperidyl]amino]oxazolo[4,5-b]pyridin-5-yl]-5-(trifluoromethyl)phenol;2,2,2-trifluoroacetic acid salt] | 5.8 nM
Cc1cc(C(F)(F)F)cc(O)c1-c1ccc2oc(N3CC4COCC4C3)nc2n1 (stereo not shown) [Example 62, 2-[2-(1,3,3a,4,6,6a-Hexahydrofuro[3,4-c]pyrrol-5-yl)oxazolo[4,5-b]pyridin-5-yl]-3-methyl-5-(trifluoromethyl)phenol] | 84.8 nM
CCN1CCC(O)C(Nc2nc3nc(-c4c(C)cc(Cl)cc4O)ccc3o2)C1 (stereo not shown) [Example 124, 3-[[5-(4-Chloro-2-hydroxy-6-methyl-phenyl)oxazolo[4,5-b]pyridin-2-yl]amino]-1-ethyl-piperidin-4-ol] | 53.8 nM
2-[2-[[(3R or 3S)-1-Ethyl-3-piperidyl]amino]-1H-imidazo[4,5-b]pyridin-5-yl]-3-methyl-5-(trifluoromethyl)phenol [Example 18A] | 4.1 nM
CCN1C[C@@H](O)C[C@@H](Nc2nc3nc(-c4c(C)cc(C)cc4O)ccc3o2)C1 [Example 70] | 3.8 nM
CCN1CCC[C@@H](Nc2nc3nc(-c4c(O)cc(C(F)(F)F)cc4F)ccc3o2)C1 [Example 53, 2-[2-[[(3R)-1-Ethyl-3-piperidyl]amino]oxazolo[4,5-b]pyridin-5-yl]-3-fluoro-5-(trifluoromethyl)phenol] | 2.6 nM
CCN1CCC[C@@H](Nc2nc3nc(-c4c(C)cc(C#N)cc4O)cc(OC)c3o2)C1 [Example 111, 4-[2-[[(3R)-1-Ethyl-3-piperidyl]amino]-7-methoxy-oxazolo[4,5-b]pyridin-5-yl]-3-hydroxy-5-methyl-benzonitrile;2,2,2-trifluoroacetic acid] | 2.2 nM
Cc1cc(C(F)(F)F)cc(O)c1-c1ccc2oc(N3CC[C@@H]4CCN(C)C[C@@H]43)nc2n1 (single isomer, unassigned) [Example 37A, 2-[2-[(3aS,7aR)-6-Methyl-3,3a,4,5,7,7a-hexahydro-2H-pyrrolo[2,3-c]pyridin-1-yl]oxazolo[4,5-b]pyridin-5-yl]-3-methyl-5-(trifluoromethyl)phenol or 2-[2-[(3aR,7aS)-6-methyl-3,3a,4,5,7,7a-hexahydro-2H-pyrrolo[2,3-c]pyridin-1-yl]oxazolo[4,5-b]pyridin-5-yl]-3-methyl-5-(trifluoromethyl)phenol] | 216 nM
COCc1cc(Cl)cc(O)c1-c1ccc2oc(N[C@@H]3C[C@H](O)CN(C)C3)nc2n1 [Example 100, (3S,5R)-5-[[5-[4-Chloro-2-hydroxy-6-(methoxymethyl)phenyl]oxazolo[4,5-b]pyridin-2-yl]amino]-1-methyl-piperidin-3-ol] | 18.4 nM
CCN1C[C@@H](O)C[C@@H](Nc2nc3nc(-c4c(C)cc(C#N)cc4O)ccc3o2)C1 [Example 28, 4-[2-[[(3R,5S)-1-Ethyl-5-hydroxy-3-piperidyl]amino]oxazolo[4,5-b]pyridin-5-yl]-3-hydroxy-5-methyl-benzonitrile;formic acid salt] | 4.6 nM
Cc1cc(C(F)(F)F)cc(O)c1-c1ccc2oc(N3CCCC(O)C3)nc2n1 (racemic) [Example 3, (rac)-1-[5-[2-Hydroxy-6-methyl-4-(trifluoromethyl)phenyl]oxazolo[4,5-b]pyridin-2-yl]piperidin-3-ol] | 75.4 nM
Cc1cc(C(F)(F)F)cc(O)c1-c1ccc2[nH]c(C3CCCN3)nc2n1 (racemic) [Example 17, (rac)-3-Methyl-2-(2-(pyrrolidin-2-yl)-1H-imidazo[4,5-b]pyridin-5-yl)-5-(trifluoro-methyl)phenol] | 183 nM
Cc1cc(C)c(-c2ccc3oc(N[C@@H]4CCCN(C)C4)nc3n2)c(O)c1 [Example 128, 3,5-Dimethyl-2-[2-[[(3R)-1-methyl-3-piperidyl]amino]oxazolo[4,5-b]pyridin-5-yl]phenol;2,2,2-trifluoroacetic acid] | 1.8 nM

Compound | IC50
Cc1cc(C(F)(F)F)cc(O)c1-c1ccc2oc(N3CCCC(O)C3)nc2n1 (single isomer, unassigned) [Example 3A, (3R or 3S)-1-[5-[2-hydroxy-6-methyl-4-(trifluoromethyl)phenyl]oxazolo[4,5-b]pyridin-2-yl]piperidin-3-ol] | 75 nM
Cc1cc(C(F)(F)F)cc(O)c1-c1ccc2[nH]c(N3CCNCC3)nc2n1 [Example 8, 3-Methyl-2-(2-piperazin-1-yl-1H-imidazo[4,5-b]pyridin-5-yl)-5-(trifluoromethyl)phenol;2,2,2-trifluoroacetic acid] | 302 nM
CCN1CCCC(Nc2nc3nc(-c4c(C)cc(C(F)(F)F)cc4O)ccc3o2)C1 (racemic) [Example 1, (rac)-2-[2-[(1-Ethyl-3-piperidyl)amino]oxazolo[4,5-b]pyridin-5-yl]-3-methyl-5-(trifluoromethyl)phenol] | 1.9 nM
Cc1cc(C(F)(F)F)cc(O)c1-c1ccc2oc(N[C@@H]3CCCN(C4CC(O)C4)C3)nc2n1 (stereo partly drawn) [Example 61, 2-[2-[[(3R)-1-(3-hydroxycyclobutyl)-3-piperidyl]amino]oxazolo[4,5-b]pyridin-5-yl]-3-methyl-5-(trifluoromethyl)phenol] | 39.4 nM
Cc1ccc(C)c(-c2ccc3oc(N[C@@H]4CCCN(C)C4)nc3n2)c1O [Example 69, 3,6-Dimethyl-2-[2-[[(3R)-1-methyl-3-piperidyl]amino]oxazolo[4,5-b]pyridin-5-yl]phenol] | 2.7 nM
COC(=O)CCCN1CCC[C@@H](Nc2nc3nc(-c4c(C)cc(Cl)cc4O)ccc3o2)C1 [Example 84, Methyl 4-[(3R)-3-[[5-(4-chloro-2-hydroxy-6-methyl-phenyl)oxazolo[4,5-b]pyridin-2-yl]amino]-1-piperidyl]butanoate] | 0.8 nM
CCCN1CCC[C@@H](Nc2nc3nc(-c4c(C)cc(Cl)cc4O)ccc3o2)C1 [Example 46, 5-Chloro-3-methyl-2-[2-[[(3R)-1-propyl-3-piperidyl]amino]oxazolo[4,5-b]pyridin-5-yl]phenol] | 1 nM
Cc1cc(Cl)cc(O)c1-c1ccc2oc(N[C@@H]3C[C@H](O)CN(C)C3)nc2n1 [Example 49, (3S,5R)-5-[[5-(4-Chloro-2-hydroxy-6-methyl-phenyl)oxazolo[4,5-b]pyridin-2-yl]amino]-1-methyl-piperidin-3-ol] | 1.6 nM
CCN1CCC[C@@H](Nc2nc3nc(-c4ccc(C(F)(F)F)cc4O)c(F)cc3[nH]2)C1 [Example 133, 2-[2-[[(3R)-1-Ethyl-3-piperidyl]amino]-6-fluoro-1H-imidazo[4,5-b]pyridin-5-yl]-5-(trifluoromethyl)phenol] | 80.3 nM
Cc1cc(C(F)(F)F)cc(O)c1-c1ccc2oc(NC3CCCOC3)nc2n1 (racemic) [Example 11, (rac)-3-Methyl-2-[2-(tetrahydropyran-3-ylamino)oxazolo[4,5-b]pyridin-5-yl]-5-(trifluoromethyl)phenol] | 217 nM
CCN1CCC12CCN(c1nc3nc(-c4c(C)cc(C(F)(F)F)cc4O)ccc3o1)CC2 [Example 79, 2-[2-(1-Ethyl-1,7-diazaspiro[3.5]nonan-7-yl)oxazolo[4,5-b]pyridin-5-yl]-3-methyl-5-(trifluoromethyl)phenol] | 94.9 nM
CCN1CCC[C@@H](Nc2nc3nc(-c4c(C)cc5c(c4O)CCO5)ccc3o2)C1 [Example 48, 5-[2-[[(3R)-1-Ethyl-3-piperidyl]amino]oxazolo[4,5-b]pyridin-5-yl]-6-methyl-2,3-dihydrobenzofuran-4-ol] | 1.2 nM
Cc1cc(C(F)(F)F)cc(O)c1-c1ccc2oc(N[C@@H]3CCCN(C)C3)nc2n1 [Example 15, 3-Methyl-2-[2-[[(3R)-1-methyl-3-piperidyl]amino]oxazolo[4,5-b]pyridin-5-yl]-5-(trifluoromethyl)phenol] | 0.7 nM
CN1CCCC(Nc2nc3nc(-c4c(O)cc(C(F)(F)F)cc4C(F)F)ccc3o2)C1 [Example 30, 3-(Difluoromethyl)-2-[2-[[(3R)-1-methyl-3-piperidyl]amino]oxazolo[4,5-b]pyridin-5-yl]-5-(trifluoromethyl)phenol;2,2,2-trifluoroacetic acid salt] | 4.5 nM
CCN1CCC[C@@H](Nc2nc3nc(-c4c(C)cc(Cl)c(F)c4O)ccc3o2)C1 [Example 21, 5-Chloro-2-[2-[[(3R)-1-ethyl-3-piperidyl]amino]oxazolo[4,5-b]pyridin-5-yl]-6-fluoro-3-methyl-phenol;2,2,2-trifluoroacetic acid salt] | 0.6 nM
